Source: US20040147574A1, “Isothiazole derivatives” (Pfizer Inc, priority 2003, published 2004)

molecular target: T1, TβRII kinase (Homo sapiens, UniProt P37173); experiment: TGF-β Type II Receptor (TβRII) kinase assay: phosphorylation of myelin basic protein; format: biochemical; details: GST-TβRII 27 nanomolar, MBP 3 micromolar, ATP 0.25 micromolar, 90 minutes at room temperature
T1 construct: cytoplasmic domain of TβRII-amino acids 193-567 with A to V change at 438
T1 sequence (P37173 193-567): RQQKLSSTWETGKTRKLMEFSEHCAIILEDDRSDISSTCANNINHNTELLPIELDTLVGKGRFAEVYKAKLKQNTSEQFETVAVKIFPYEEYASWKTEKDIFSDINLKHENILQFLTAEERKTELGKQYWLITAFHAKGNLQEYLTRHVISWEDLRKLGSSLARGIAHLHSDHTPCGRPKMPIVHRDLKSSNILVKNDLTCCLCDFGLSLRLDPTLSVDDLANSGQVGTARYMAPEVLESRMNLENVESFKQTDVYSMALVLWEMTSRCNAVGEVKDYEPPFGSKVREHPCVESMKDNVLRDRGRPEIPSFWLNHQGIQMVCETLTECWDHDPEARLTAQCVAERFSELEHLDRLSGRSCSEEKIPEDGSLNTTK
Protocol: Phosphorylation of myelin basic protein (MBP) by the TβRII kinase was measured as follows: 80 microliters of MBP (Upstate Biotechnology #13-104) diluted in kinase reaction buffer (KRB) containing 50 mM MOPS, 5 mM MgCl2, pH 7.2 to yield a final concentration of 3 micromolar MBP was added to each well of a Millipore 96-well multiscreen-DP 0.65 micron filtration plate (#MADPNOB50). 20 microliters of inhibitor diluted in KRB was added to appropriate wells to yield the desired final concentration (10-0.03 micromolar). 10 microliters of a mixture of ATP (Sigma #A-5394) and ^33P-ATP (Perkin Elmer #NEG/602H) diluted in KRB was added to yield a final concentration of 0.25 micromolar ATP and 0.02 microcuries of ^33P-ATP per well. 10 microliters of a GST-TβRII fusion protein (glutathione S-transferase at the N-terminal end of the cytoplasmic domain of TβRII-amino acids 193-567 with A to V change at 438) diluted in KRB was added to each well to yield a final concentration of 27 nanomolar GST-TβRII. Plates were mixed and incubated for 90 minutes at room temperature. After the reaction incubation, 100 microliters of cold 20% trichloroacetic acid (Aldrich #25,139-9) was added per well and plates were mixed and incubated for 60 minutes at 4° C. Liquid was then removed from the wells using a Millipore vacuum manifold. Plates were washed once with 200 microliters per well of cold 10% trichloroacetic acid followed by two washes with 100 microliters per well of cold 10% trichloroacetic acid. Plates were allowed to dry overnight at room temperature. 20 microliters of Wallac OptiPhase SuperMix scintillation cocktail was added to each well. Plates were sealed and counted using a Wallac 1450 Microbeta liquid scintillation counter. The potency of inhibitors was determined by their ability to reduce TβRII-mediated phosphorylation of the MBP substrate.

IC50 [nM] | Compound
1610 | NC(=O)c1c(OCc2cccnc2)nsc1NC(=O)NCCC1=CCCCC1 [Example 3, 5-[3-(2-Cyclohex-1-enyl-ethyl)-ureido]-3-(pyridin-3-ylmethoxy)-isothiazole-4-carboxylic acid amide]
1600 | Cc1ccc(C)c(CNC(=O)Nc2snc(OCc3cccnc3)c2C(N)=O)c1 [Example 4, 5-[3-(2,5-Dimethyl-benzyl)-ureido]-3-(pyridin-3-ylmethoxy)-isothiazole-4-carboxylic acid amide]
754 | COc1ccc(CCNC(=O)Nc2snc(OCc3cccnc3)c2C(N)=O)cc1OC [Example 6, 5-{3-[2-(3,4-Dimethoxy-phenyl)-ethyl]-ureido}-3-(pyridin-3-ylmethoxy)-isothiazole-4-carboxylic acid amide]
940 | NC(=O)c1c(OCc2cccnc2)nsc1NC(=O)NCCc1ccccc1 [Example 7, 5-(3-Phenethyl-ureido)-3-(pyridin-3-ylmethoxy)-isothiazole-4-carboxylic acid amide]
1970 | CCOc1cc(CCNC(=O)Nc2snc(OCc3cccnc3)c2C(N)=O)ccc1OC [Example 8, 5-{3-[2-(3-Ethoxy-4-methoxy-phenyl)-ethyl]-ureido}-3-(pyridin-3-ylmethoxy)-isothiazole-4-carboxylic acid amide]
2260 | NC(=O)c1c(OCc2cccnc2)nsc1NC(=O)NCCc1cccc(Cl)c1 [Example 9, 5-{3-[2-(3-Chloro-phenyl)-ethyl]-ureido}-3-(pyridin-3-ylmethoxy)-isothiazole-4-carboxylic acid amide]
2120 | COc1cccc(CCNC(=O)Nc2snc(OCc3cccnc3)c2C(N)=O)c1 [Example 10, 5-{3-[2-(3-Methoxy-phenyl)-ethyl]-ureido}-3-(pyridin-3-ylmethoxy)-isothiazole-4-carboxylic acid amide]
2990 | NC(=O)c1c(OCc2cccnc2)nsc1NC(=O)NCCc1ccccc1Cl [Example 11, 5-{3-[2-(2-Chloro-phenyl)-ethyl]-ureido}-3-(pyridin-3-ylmethoxy)-isothiazole-4-carboxylic acid amide]
3120 | NC(=O)c1c(OCc2cccnc2)nsc1NC(=O)NCCc1ccccc1F [Example 12, 5-{3-[2-(2-Fluoro-phenyl)-ethyl]-ureido}-3-(pyridin-3-ylmethoxy)-isothiazole-4-carboxylic acid amide]
1480 | NC(=O)c1c(OCc2cccnc2)nsc1NC(=O)NCCc1cccc(F)c1 [Example 13, 5-{3-[2-(3-Fluoro-phenyl)-ethyl]-ureido}-3-(pyridin-3-ylmethoxy)-isothiazole-4-carboxylic acid amide]
551 | CCOc1ccc(CCNC(=O)Nc2snc(OCc3cccnc3)c2C(N)=O)cc1OC [Example 14, 5-{3-[2-(4-Ethoxy-3-methoxy-phenyl)-ethyl]-ureido}-3-(pyridin-3-ylmethoxy)-isothiazole-4-carboxylic acid amide]
437 | NC(=O)c1c(OCc2cccnc2)nsc1NC(=O)NCCCN1CCOCC1 [Example 15, 5-[3-(3-Morpholin-4-yl-propyl)-ureido]-3-(pyridin-3-ylmethoxy)-isothiazole-4-carboxylic acid amide]
855 | NC(=O)c1c(OCc2cccnc2)nsc1NC(=O)NCCN1CCOCC1 [Example 16, 5-[3-(2-Morpholin-4-yl-ethyl)-ureido]-3-(pyridin-3-ylmethoxy)-isothiazole-4-carboxylic acid amide]
1940 | CCN(CC)CCNC(=O)Nc1snc(OCc2cccnc2)c1C(N)=O [Example 17, 5-[3-(2-Diethylamino-ethyl)-ureido]-3-(pyridin-3-ylmethoxy)-isothiazole-4-carboxylic acid amide]
801 | CN(C)CCCNC(=O)Nc1snc(OCc2cccnc2)c1C(N)=O [Example 18, 5-[3-(3-Dimethylamino-propyl)-ureido]-3-(pyridin-3-ylmethoxy)-isothiazole-4-carboxylic acid amide]
457 | CN1CCCC1CCNC(=O)Nc1snc(OCc2cccnc2)c1C(N)=O (stereo not drawn) [Example 19, 5-{3-[2-(1-Methyl-pyrrolidin-2-yl)-ethyl]-ureido}-3-(pyridin-3-ylmethoxy)-isothiazole-4-carboxylic acid amide]
966 | CC1CCCCN1CCCNC(=O)Nc1snc(OCc2cccnc2)c1C(N)=O (stereo not drawn) [Example 20, 5-{3-[3-(2-Methyl-piperidin-1-yl)-propyl]-ureido}-3-(pyridin-3-ylmethoxy)-isothiazole-4-carboxylic acid amide]
759 | NC(=O)c1c(OCc2cccnc2)nsc1NC(=O)NC[C@H]1CCCCC[C@H]1O [Example 21, (R),(R)-5-[3-(2-Hydroxy-cycloheptylmethyl)-ureido]-3-(pyridin-3-ylmethoxy)-isothiazole-4-carboxylic acid amide]
753 | NC(=O)c1c(OCc2cccnc2)nsc1NC(=O)NC[C@H]1CCCCCC[C@H]1O [Example 22, (R),(R)-5-[3-(2-Hydroxy-cyclooctylmethyl)-ureido]-3-(pyridin-3-ylmethoxy)-isothiazole-4-carboxylic acid amide]
349 | NC(=O)c1c(OCc2cccnc2)nsc1NC(=O)NCCO [Example 23, 5-[3-(2-Hydroxy-ethyl)-ureido]-3-(pyridin-3-ylmethoxy)-isothiazole-4-carboxylic acid amide]
669 | CCC(O)CNC(=O)Nc1snc(OCc2cccnc2)c1C(N)=O (stereo not drawn) [Example 24, 5-[3-(2-Hydroxy-butyl)-ureido]-3-(pyridin-3-ylmethoxy)-isothiazole-4-carboxylic acid amide]
7390 | CC(Oc1nsc(NC(=O)NCc2ccccn2)c1C(N)=O)c1cccnc1 (stereo not drawn) [Example 25, 3-(1-Pyridin-3-yl-ethoxy)-5-(3-pyridin-2-ylmethyl-ureido)-isothiazole-4-carboxylic acid amide]
502 | COc1cccc(OC)c1CNC(=O)Nc1snc(OC(C)c2cccnc2)c1C(N)=O (stereo not drawn) [Example 26, 5-[3-(2,6-Dimethoxy-benzyl)-ureido]-3-(1-pyridin-3-yl-ethoxy)-isothiazole-4-carboxylic acid amide]
710 | CNC(=O)Nc1snc(OC(C)c2cccnc2)c1C(N)=O (stereo not drawn) [Example 27, 5-(3-Methyl-ureido)-3-(1-pyridin-3-yl-ethoxy)-isothiazole-4-carboxylic acid amide]
